Experimental data published in article PMC11476419, “Analysis of Punicalin and Punicalagin Interaction with PDIA3 and PDIA1” (International Journal of Molecular Sciences, 2024).
pKd: −log10 of the molar value.

How the values were obtained:
PDIA1 [1] = molecular target: T1, PDIA1 (Homo sapiens, UniProt P07237); experiment: Differential scanning fluorimetry (protein thermal shift); format: binding; conditions: PDIA1, compound 20 µM
T1 construct: The mature human PDIA1 with an N-terminal His6x-tag was expressed and purified; His6 (N); made in house
T1 sequence (P07237 18-508): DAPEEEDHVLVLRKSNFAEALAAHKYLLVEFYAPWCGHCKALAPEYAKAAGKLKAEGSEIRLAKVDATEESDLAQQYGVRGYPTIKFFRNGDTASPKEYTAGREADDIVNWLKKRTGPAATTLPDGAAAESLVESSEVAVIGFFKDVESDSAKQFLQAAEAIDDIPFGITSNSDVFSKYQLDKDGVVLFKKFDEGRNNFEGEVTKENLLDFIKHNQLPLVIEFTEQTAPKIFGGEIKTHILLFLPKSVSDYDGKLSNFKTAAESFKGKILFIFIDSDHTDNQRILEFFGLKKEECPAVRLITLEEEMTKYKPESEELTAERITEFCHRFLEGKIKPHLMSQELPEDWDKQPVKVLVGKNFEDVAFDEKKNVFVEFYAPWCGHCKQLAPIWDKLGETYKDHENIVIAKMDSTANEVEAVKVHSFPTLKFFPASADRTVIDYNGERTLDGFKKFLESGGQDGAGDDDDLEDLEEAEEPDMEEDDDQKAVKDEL
Experimental: The effect of punicalin and punicalagin on the stability of both proteins was evaluated by differential scanning fluorimetry (DSF). Initially, PDIA1 and PDIA3 were incubated at 25 °C for 20 min with both substances at 5 µM and 20 µM concentrations. […] The reading was optimized at intervals of 0.2 °C every 5 s. Once the fluorescence profile was obtained, the data were analyzed with the GraphPad prism program, by either fitting data with a Boltzmann equation or calculating the first derivative. In DSF analyses, a gradual increase in fluorescence is observed, due to a conformational change in the protein, which reaches a maximum value and then decreases because of protein precipitation.
To evaluate Tm, we focused the attention on the main transition, and thus we fitted, with a Boltzmann equation, the data in the range of 25–55 °C for PDIA3 and in the range of 45–70 °C for PDIA1. Again, the two substances show a destabilizing effect, which was more evident for PDIA3 than for PDIA1. In fact, punicalagin and punicalin at a 20 µM concentration cause a shift of Tm of at least 6 °C in the case of PDIA3, while this is approximately 3 °C for PDIA1 (Figure 7).
Protein stability in the absence and presence of punicalagin/punicalin was tested by means of the fluorescence-based thermal stability assay or differential scanning fluorimetry (DSF) developed by Pantoliano and coworkers. DSF records the fluorescence emission signal from the binding of a dye (SYPRO orange) to the exposed hydrophobic patches upon protein unfolding. Fluorescence measurements were performed using a CFX96 Connect RT-PCR instrument (BioRad, Hercules, CA, USA). Aliquots of 18 μL of protein solution (2 μM), freshly diluted in Tris Buffered saline (50 mM TrisHCl, pH 8.0, 150 mM NaCl) containing 0.1 mM DTT, 0.2 mM EDTA, and 1: 1000 dilution of SYPRO Orange (50 mM stock solution in DMSO), were distributed in a 96-well plate. Sample wells were added with punicalagin or punicalin at a final concentration of 5 uM or 20 μM by adding 2 μL of a 10-fold concentrated freshly prepared stock solution. As control, the protein solution was added with 2 μL of the dilution buffer. A melting point analysis was recorded by increasing the temperature from 25 to 70 °C with an increment of 0.2 °C every 5 s and reading, at each temperature, the fluorescence in fluorescence resonance energy transfer mode (FRET). Each measure was the average of three sample well readings, and each DSF experiment was repeated at least three times. To calculate Tm values, DSF data from the melting curve were exported and fitted to a Boltzmann equation using GraphPad software. The effect of punicalagin and punicalin was evaluated comparing the Tm values in the presence and absence of each molecule.

PDIA1 [2] = molecular target: T1, PDIA1; experiment: Intrinsic tryptophan fluorescence quenching; format: binding
Experimental: In a previous article, we evaluated the ability of punicalagin to interact with PDIA1 and PDIA3 [40]. In this study, the results previously obtained were compared with those obtained using punicalin. The protein–ligand interaction was evaluated by intrinsic quenching analysis due to the presence, in both proteins, of aromatic amino acids, among which tryptophan residues represent the main source. Quenching analysis was performed on PDIA1 and PDIA3, in the reduced form, by adding increasing concentrations of punicalin and recording the fluorescence spectra of both proteins. […] Quenching of intrinsic tryptophan fluorescence of both proteins was assessed using the Stern–Volmer equation, as previously reported. To further characterize the binding process, fluorescence data were analyzed using the equation described by Bi et al. and the reiterative calculation process described by Sun et al., providing an estimated value of the dissociation constant (Kd). The values of the Stern–Volmer constant (KSV) and the Kd obtained for punicalin are summarized in Table 1 and compared with those obtained for punicalagin [40]. The comparison of the results confirms that punicalin can bind both PDIs, although showing a slightly lesser affinity with respect to punicalagin.
The mature recombinant form (devoid of the N-terminal […]) of the human PDIA3 protein was expressed and purified according to the procedure previously described. […] In both cases, protein purification was evaluated by SDS-PAGE and Coomassie Blue staining, while the concentration was spectrophotometrically estimated using the extinction coefficient (PDIA3 in the reduced form, ε280 = 44,810 M^−1cm^−1; PDIA1 in the reduced form, ε280 = 45,567 M^−1cm^−1).
Protein–ligand interactions were evaluated by titration of intrinsic fluorescence quenching. Protein mission spectra were recorded by a SPEX-FluoroMax spectrofluorometer (Horiba Scientific, Piscataway, NJ, USA) from 300 to 400 nm, with an excitation wavelength set at 290 nm, emission slit set width, a 2 nm bandpass, and a scan speed set at 120 nm min^−1. […] The emission spectrum of the protein was recorded and the fluorescence intensities at 338 nm, obtained in at least three independent titration experiments, were used for quenching analyses, as previously described. Quenching of intrinsic tryptophan fluorescence at 338 nm was analyzed by the Stern–Volmer equation (Fo/F = 1 + KSV[L]), where F and Fo are the fluorescence intensity, respectively with or without ligand (L), and KSV is the Stern–Volmer constant value. Fluorescence data at 338 nm were also analyzed using the equation described by Bi et al. and the reiterative calculation process described by Sun et al., providing an estimated value of Kd.

## O=C1OC[C@H]2OC(O)[C@H](O)[C@@H](O)[C@@H]2OC(=O)c2cc(O)c(O)c(O)c2-c2c(O)c(O)c3oc(=O)c4c(c(O)c(O)c5oc(=O)c2c3c54)-c2c1cc(O)c(O)c2O (mixture of isomers) [Punicalin, punicalin]
PDIA1 [1]
  shift towards lower temperature of second main transition (first-derivative graph): about 5 °C
PDIA1 [1]; fit range 45–70 °C
  shift of Tm (destabilizing, Boltzmann fit): approximately 3 °C
PDIA1 [2]; reduced PDIA1 0.1 × 10^−6 M, pH 7.4, 25 °C, mean and SEM
  Stern–Volmer constant (KSV): 64.0 ± 0.4 M^−1 × 10^3
PDIA1 [2]; reduced PDIA1, pH 7.4, 25 °C, estimated from quenching data, read-out: dissociation constant (Kd)
  pKd: 4.80
